Measurements reported in ChEMBL document CHEMBL6182851, “Discovery of dual CDK4/6 and BRD4 inhibitor as apoptosis and autophagy inducers against NSCLC in vitro and in vivo” (Eur J Med Chem, 2025).
Calls of active or inactive are those of the source. The calls are words filed in the database; no cut-off is given here.

What was measured:
NCI-H460 [1] = test: Induction of autophagy in human NCI-H460 cells assessed as reduction in intracellular AKT protein expression; type: functional, cell-based
NCI-H460 [2] = test: Induction of autophagy in human NCI-H460 cells assessed as reduction in intracellular mTOR protein expression; type: functional, cell-based
[3] = target: Cyclin-dependent kinase 4 (Homo sapiens, UniProt P11802); test: Inhibition of CDK4 (unknown origin)
L02 [4] = test: Cytotoxicity against human LO2 cells assessed as inhibition of cell viability at 5 to 10 uM incubated for 48 hrs by MTT assay; type: toxicity, cell-based; conditions: l02, 48 h, dose 5-10 µM
NCI-H460 [5] = test: Antiproliferative activity against human NCI-H460 cells assessed as reduction in EdU positive cells incubated for 24 hrs by EdU incorporation assay; type: functional, cell-based; conditions: dose 2-8 µM
NCI-H460 [6] = test: Antiproliferative activity against human NCI-H460 cells assessed as decrease in c-myc expression at 2 to 8 uM treated for 24 hrs by immunofluorescence analysis; type: functional, cell-based; conditions: dose 2-8 µM
NCI-H460 [7] = test: Antiproliferative activity against human NCI-H460 cells assessed as decrease in p-Rb expression at 2 to 8 uM treated for 24 hrs by immunofluorescence analysis; type: functional, cell-based; conditions: dose 2-8 µM
NCI-H460 [8] = test: Induction of apoptosis in human NCI-H460 cells assessed as necrotic cells at 2 uM incubated for 48 hrs by Annexin V-PE/7-AAD staining based flow cytometric analysis (reference value: 0.79 %); type: functional
NCI-H460 [9] = test: Induction of apoptosis in human NCI-H460 cells assessed as late apoptotic cells at 8 uM incubated for 48 hrs by Annexin V-PE/7-AAD staining based flow cytometric analysis (reference value: 3.76 %); type: functional
NCI-H460 [10] = test: Induction of cell cycle arrest in human NCI-H460 cells assessed as accumulation of cells at G1 phase at 2 uM incubated for 48 hrs by PI staining based flow cytometric analysis (reference value: 56.7 %); type: functional
NCI-H460 [11] = test: Induction of cell cycle arrest in human NCI-H460 cells assessed as accumulation of cells at G2 phase at 2 uM incubated for 48 hrs by PI staining based flow cytometric analysis (reference value: 11.0 %); type: functional
NCI-H460 [12] = test: Induction of cell cycle arrest in human NCI-H460 cells assessed as accumulation of cells at S phase at 4 uM incubated for 48 hrs by PI staining based flow cytometric analysis (reference value: 33.3 %); type: functional
NCI-H460 [13] = test: Induction of cell cycle arrest in human NCI-H460 cells assessed as accumulation of cells at G2 phase at 4 uM incubated for 48 hrs by PI staining based flow cytometric analysis (reference value: 11.0 %); type: functional
NCI-H460 [14] = test: Induction of cell cycle arrest in human NCI-H460 cells assessed as accumulation of cells at S phase at 8 uM incubated for 48 hrs by PI staining based flow cytometric analysis (reference value: 33.3 %); type: functional
NCI-H460 [15] = test: Induction of autophagy in human NCI-H460 cells assessed as colocalization of LC3B site with LAMP1 protein incubated for 24 hrs by immunofluorescence analysis; type: functional, cell-based; conditions: dose 2-8 µM
NCI-H460 [16] = test: Induction of autophagy in human NCI-H460 cells assessed as reduction in intracellular PI3K protein expression; type: functional, cell-based
NCI-H460 [17] = test: Induction of autophagy in human NCI-H460 cells assessed as increase in yellow fluorescence incubated for 24 hrs by immunofluorescence analysis; type: functional, cell-based; conditions: dose 2-8 µM
NCI-H460 [18] = test: Induction of autophagy in human NCI-H460 cells assessed as increase in autophagic vesicles at 4 uM incubated for 24 hrs by transmission electron microscopic analysis; type: functional, cell-based
NCI-H460 [19] = test: Induction of autophagy in human NCI-H460 cells assessed as production of autophagic vesicles at 4 uM incubated for 24 hrs by transmission electron microscopic analysis; type: functional, cell-based
[20] = AUC (0 to t) in male Sprague-Dawley rat at 5 mg/kg, iv measured up to 24 hrs by LC-MS/MS analysis; type: ADME, organism-based; conditions: in vivo
[21] = AUC (0 to infinity) in male Sprague-Dawley rat at 5 mg/kg, iv measured up to 24 hrs by LC-MS/MS analysis; type: ADME, organism-based; conditions: in vivo
[22] = Clearance in male Sprague-Dawley rat at 5 mg/kg, iv measured up to 24 hrs by LC-MS/MS analysis; type: ADME, organism-based; conditions: in vivo
NCI-H460 [23] = test: Antitumor activity against human NCI-H460 cells xenografted in female BALB/c nude mouse assessed as tumor growth inhibition at 25 mg/kg, ip administered for 21 consecutive days relative to control; type: functional; conditions: NCI-H460, 504 h, time 21 day, read-out: TGI
NCI-H460 [24] = test: Antitumor activity against human NCI-H460 cells xenografted in female BALB/c nude mouse assessed as reduction in P-RB expression at 50 mg/kg, ip administered for 21 consecutive days by immunohistochemical analysis; type: functional, organism-based; conditions: time 21.0 day
L02 [25] = test: Cytotoxicity against human LO2 cells measured up to 8 days; type: toxicity, cell-based; conditions: l02, 192 h, time < 8 day
NCI-H460 [26] = test: Antitumor activity against human NCI-H460 cells xenografted in female BALB/c nude mouse at 25 mg/kg, ip administered for 21 consecutive days; type: functional, organism-based; conditions: time 21.0 day
NCI-H460 [27] = test: Antitumor activity against human NCI-H460 cells xenografted in female BALB/c nude mouse assessed as suppression of tumor volume at 50 mg/kg, ip administered for 21 consecutive days; type: functional, organism-based; conditions: time 21.0 day
[28] = Toxicity in mouse assessed as histological change in spleen at 400 mg/kg, ip measured for 21 days by H and E staining based analysis; type: organism-based; conditions: in vivo, 504 h, time 21 day
[29] = Toxicity in mouse assessed as histological change in lung at 400 mg/kg, ip measured for 21 days by H and E staining based analysis; type: organism-based; conditions: in vivo, 504 h, time 21 day
A549 = test: cells; conditions: Homo sapiens, A549, 48 h
Description: Antitumor activity against human A549 cells assessed as inhibition of cell viability incubated for 48 hrs by MTT assay

Cyclin-dependent kinase 4, sequence (P11802 whole entry): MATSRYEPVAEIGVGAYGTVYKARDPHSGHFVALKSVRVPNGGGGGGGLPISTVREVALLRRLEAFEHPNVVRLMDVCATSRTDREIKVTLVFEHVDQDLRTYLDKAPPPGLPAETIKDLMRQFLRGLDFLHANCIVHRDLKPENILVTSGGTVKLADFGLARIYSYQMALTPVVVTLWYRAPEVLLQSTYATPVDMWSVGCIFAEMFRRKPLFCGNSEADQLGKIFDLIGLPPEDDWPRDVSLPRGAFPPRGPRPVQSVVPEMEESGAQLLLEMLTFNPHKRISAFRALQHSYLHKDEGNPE

SMILES: COc1cc(-c2nc3ccc(F)cc3c(=O)[nH]2)cc(OC)c1OCC(=O)N1CCN(c2ccc(Nc3ncc4cc(C(=O)N(C)C)n(C5CCCC5)c4n3)nc2)CC1
- Activity (NCI-H460 [1]): Dose-dependent-effect
- Activity (NCI-H460 [2]): Dose-dependent-effect
- IC50 [3]: 85.1 nM
- Activity (L02 [4]): Non-toxic
- Activity (NCI-H460 [5]): Dose-dependent-effect
- Activity (NCI-H460 [6]): Active
- Activity (NCI-H460 [7]): Active
- Activity (NCI-H460 [8]): 1.6%
- Activity (NCI-H460 [9]): 3.07%
- Activity (NCI-H460 [10]): 60.6%
- Activity (NCI-H460 [11]): 11.4%
- Activity (NCI-H460 [12]): 18.8%
- Activity (NCI-H460 [13]): 7.15%
- Activity (NCI-H460 [14]): 15.8%
- Activity (NCI-H460 [15]): Dose-dependent-effect
- Activity (NCI-H460 [16]): Dose-dependent-effect
- Activity (NCI-H460 [17]): Dose-dependent-effect
- Activity (NCI-H460 [18]): Active
- Activity (NCI-H460 [19]): Active
- AUC(0-t) at 24 h [20]: 3780 ng·h/mL
- AUC(0-inf) [21]: 3860 ng·h/mL
- clearance [22]: 22.3 mL/min/kg
- inhibition in vivo at 25 mg/kg (NCI-H460 [23]): 67.8%
- Activity (NCI-H460 [24]): Active
- Activity (L02 [25]): Non-toxic
- Activity (NCI-H460 [26]): Active
- Activity (NCI-H460 [27]): Active
- Activity [28]: Non-toxic
- Activity [29]: Non-toxic
- IC50 (A549): 4590 nM
